Assay results from PubChem BioAssay (NCI).
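How tested: cells in 96-well plates exposed to compound for 48 hours at five concentrations. TGI marks complete inhibition of growth.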

How the values were obtained:
Experiment in all cases: NCI anticancer screen, dose series, 48 h
RXF 393 renal = tested on: RXF 393 renal
SNB-75 CNS = tested on: SNB-75 CNS
EKVX NSCLC = tested on: EKVX NSCLC
RPMI-8226 leukemia = tested on: RPMI-8226 leukemia
SF-295 CNS = tested on: SF-295 CNS
U251 CNS = tested on: U251 CNS
SK-MEL-5 melanoma = tested on: SK-MEL-5 melanoma
CCRF-CEM leukemia = tested on: CCRF-CEM leukemia
HOP-62 NSCLC = tested on: HOP-62 NSCLC
HCT-116 colon = tested on: HCT-116 colon
OVCAR-5 ovarian = tested on: OVCAR-5 ovarian
NCI-H460 lung = tested on: NCI-H460 lung
786-0 renal = tested on: 786-0 renal
NCI-H226 lung = tested on: NCI-H226 lung
OVCAR-8 ovarian = tested on: OVCAR-8 ovarian
ACHN renal = tested on: ACHN renal
MDA-MB-435 = tested on: MDA-MB-435
HCC-2998 colon = tested on: HCC-2998 colon
SK-OV-3 ovarian = tested on: SK-OV-3 ovarian

SMILES | TGI (RXF 393 renal) [µM] | TGI (SNB-75 CNS) [µM] | TGI (EKVX NSCLC) [µM] | TGI (RPMI-8226 leukemia) [µM] | TGI (SF-295 CNS) [µM] | TGI (U251 CNS) [µM] | TGI (SK-MEL-5 melanoma) [µM] | TGI (CCRF-CEM leukemia) [µM] | TGI (HOP-62 NSCLC) [µM] | TGI (HCT-116 colon) [µM] | TGI (OVCAR-5 ovarian) [µM] | TGI (NCI-H460 lung) [µM] | TGI (786-0 renal) [µM] | TGI (NCI-H226 lung) [µM] | TGI (OVCAR-8 ovarian) [µM] | TGI (ACHN renal) [µM] | TGI (MDA-MB-435) [µM] | TGI (HCC-2998 colon) [µM] | TGI (SK-OV-3 ovarian) [µM]
C=CCNC(=S)N1c2ccccc2NC(=O)CC1C (stereo not drawn) | > 100 | > 100 | > 100 | > 100 | > 100 | > 100 | > 100 | > 100 | > 100 | > 100 | > 100 | > 100 | > 100 | > 100 | > 100 | > 100 | – | – | –
C[C@]12CCC(=O)C=C1CC[C@@H]1[C@@H]2CC[C@]2(C)C(=O)[C@H](n3ccnc3)C[C@@H]12 | > 100 | > 100 | > 100 | > 100 | > 100 | > 100 | > 100 | > 100 | – | > 100 | > 100 | > 100 | > 100 | > 100 | > 100 | > 100 | > 100 | – | –
C=C[C@]1(C)CCC2=C(CCC3C2(C)CCC[C@]3(C)CO)C1 (stereo partly drawn) | 84.4 | > 100 | > 100 | > 100 | > 100 | 63.8 | > 100 | > 100 | > 100 | > 100 | > 100 | > 100 | > 100 | > 100 | > 100 | > 100 | – | > 100 | > 100
Nc1ncnc2c1ncn2C1C=CC(CP(=O)(O)O)C1 (stereo not drawn) | > 100 | > 100 | > 100 | > 100 | > 100 | > 100 | > 100 | – | > 100 | > 100 | > 100 | > 100 | > 100 | > 100 | > 100 | > 100 | > 100 | > 100 | > 100
O=C(C#CP(=O)(O)c1ccccc1)c1ccccc1 | – | > 100 | > 100 | – | > 100 | > 100 | > 100 | – | > 100 | > 100 | > 100 | > 100 | > 100 | – | > 100 | > 100 | > 100 | > 100 | > 100
COc1ccc(CNC2=C(NC(C)=O)C(=O)c3ccccc3C2=O)cc1 | 12.8 | 49.5 | 47.3 | – | > 50 | 47.5 | 14.1 | 24.7 | > 50 | 19.9 | – | > 50 | > 50 | > 50 | > 50 | 8.69 | – | > 50 | > 50
CCOc1ccccc1N=Nc1c(-c2ccccc2)nn(C(=O)CC(=O)Nc2cccc(Cl)c2)c1-c1ccccc1 | > 100 | > 100 | > 100 | > 100 | > 100 | > 100 | > 100 | > 100 | > 100 | > 100 | > 100 | > 100 | > 100 | > 100 | > 100 | > 100 | – | > 100 | > 100
CCOC(=O)C(Cc1ccccc1)NC(=O)c1ccc(N=NN(C)C)cc1 (stereo not drawn) | – | > 100 | > 100 | > 100 | > 100 | > 100 | > 100 | > 100 | > 100 | > 100 | > 100 | > 100 | > 100 | > 100 | > 100 | > 100 | – | > 100 | > 100
COC1C=CC(C(=O)[N+]2=Cc3[nH]c4ccccc4c3CC2)O1 (stereo not drawn) | > 100 | > 100 | > 100 | > 100 | > 100 | > 100 | > 100 | 76.6 | > 100 | > 100 | > 100 | > 100 | > 100 | > 100 | > 100 | > 100 | – | > 100 | > 100
NCC#CCNCCCN1CC1 | – | – | > 100 | > 100 | > 100 | > 100 | > 100 | – | > 100 | > 100 | > 100 | > 100 | > 100 | > 100 | > 100 | > 100 | > 100 | > 100 | > 100
